According to patent US12365696B2, “Small-molecule focal adhesion kinase (FAK) inhibitors” (DANA-FARBER CANCER INSTITUTE, INC., priority 2019, dated 2025):

Columns and labels:
Experiment in all cases: KINOMEscan
Type in all cases: binding
[1] = target: ABL1(Y253F)-phosphorylated (Homo sapiens (Human), UniProt P00519, Y253F); conditions: 10000 nM, read-out: Percent Control
CDK7 = CDK7 (Homo sapiens (Human), UniProt P50613); conditions: CDK7, 10000 nM; read-out: Percent Control
CDK9 = CDK9 (Homo sapiens (Human), UniProt P50750); conditions: CDK9, 10000 nM; read-out: Percent Control
CDKL1 = CDKL1 (Homo sapiens (Human), UniProt Q00532); conditions: CDKL1, 10000 nM; read-out: Percent Control
CLK3 = CLK3 (Homo sapiens (Human), UniProt P49761); conditions: CLK3, 10000 nM; read-out: Percent Control
CSNK1G1 = CSNK1G1 (Homo sapiens (Human), UniProt Q9HCP0); conditions: CSNK1G1, 10000 nM; read-out: Percent Control
CSNK2A1 = CSNK2A1 (Homo sapiens (Human), UniProt P68400); conditions: CSNK2A1, 10000 nM; read-out: Percent Control
DYRK1B = DYRK1B (Homo sapiens (Human), UniProt Q9Y463); conditions: 10000 nM, read-out: Percent Control
EGFR(G719S) = EGFR(G719S) (Homo sapiens (Human), UniProt P00533, G719S); conditions: 10000 nM, read-out: Percent Control
[2] = target: EGFR(L747-E749del, A750P) (Homo sapiens (Human), UniProt P00533, A750P/DEL747-749); conditions: 10000 nM, read-out: Percent Control
EGFR(L747-T751del, Sins) = EGFR(L747-T751del, Sins) (Homo sapiens (Human), UniProt P00533, DEL747-751/INS746S); conditions: 10000 nM, read-out: Percent Control
EGFR(T790M) = EGFR(T790M) (Homo sapiens (Human), UniProt P00533, T790M); conditions: 10000 nM, read-out: Percent Control
FGFR3(G697C) = FGFR3(G697C) (Homo sapiens (Human), UniProt P22607, G697C); conditions: 10000 nM, read-out: Percent Control
HCK = HCK (Homo sapiens (Human), UniProt P08631); conditions: 10000 nM, read-out: Percent Control
HIPK1 = HIPK1 (Homo sapiens (Human), UniProt Q86Z02); conditions: HIPK1, 10000 nM; read-out: Percent Control
IKK-alpha = IKK-alpha (Homo sapiens (Human), UniProt O15111); conditions: 10000 nM, read-out: Percent Control
LKB1 = LKB1 (Homo sapiens (Human), UniProt Q15831); conditions: LKB1, 10000 nM; read-out: Percent Control
MARK1 = MARK1 (Homo sapiens (Human), UniProt Q9P0L2); conditions: MARK1, 10000 nM; read-out: Percent Control
NEK5 = NEK5 (Homo sapiens (Human), UniProt Q6P3R8); conditions: NEK5, 10000 nM; read-out: Percent Control
PAK7 = PAK7 (Homo sapiens (Human), UniProt Q9P286); conditions: PAK7, 10000 nM; read-out: Percent Control
PDPK1 = PDPK1 (Homo sapiens (Human), UniProt O15530); conditions: PDPK1, 10000 nM; read-out: Percent Control
PIK3CA = PIK3CA (Homo sapiens (Human), UniProt P42336); conditions: 10000 nM, read-out: Percent Control
PIK3CA(E545A) = PIK3CA(E545A) (Homo sapiens (Human), UniProt P42336, E545A); conditions: 10000 nM, read-out: Percent Control
PLK2 = PLK2 (Homo sapiens (Human), UniProt Q9NYY3); conditions: PLK2, 10000 nM; read-out: Percent Control
SBK1 = SBK1 (Homo sapiens (Human), UniProt Q52WX2); conditions: SBK1, 10000 nM; read-out: Percent Control
SgK110 = SgK110 (Homo sapiens (Human), UniProt P0C264); conditions: SgK110, 10000 nM; read-out: Percent Control
SLK = SLK (Homo sapiens (Human), UniProt Q9H2G2); conditions: 10000 nM, read-out: Percent Control
SRC = SRC (Homo sapiens (Human), UniProt P12931); conditions: 10000 nM, read-out: Percent Control
STK16 = STK16 (Homo sapiens (Human), UniProt O75716); conditions: STK16, 10000 nM; read-out: Percent Control
STK36 = STK36 (Homo sapiens (Human), UniProt Q9NRP7); conditions: STK36, 10000 nM; read-out: Percent Control
ULK1 = ULK1 (Homo sapiens (Human), UniProt O75385); conditions: ULK1, 10000 nM; read-out: Percent Control
ULK3 = ULK3 (Homo sapiens (Human), UniProt Q6PHR2); conditions: ULK3, 10000 nM; read-out: Percent Control
VRK2 = VRK2 (Homo sapiens (Human), UniProt Q86Y07); conditions: VRK2, 10000 nM; read-out: Percent Control

Sequence of CSNK2A1 (P68400 whole entry): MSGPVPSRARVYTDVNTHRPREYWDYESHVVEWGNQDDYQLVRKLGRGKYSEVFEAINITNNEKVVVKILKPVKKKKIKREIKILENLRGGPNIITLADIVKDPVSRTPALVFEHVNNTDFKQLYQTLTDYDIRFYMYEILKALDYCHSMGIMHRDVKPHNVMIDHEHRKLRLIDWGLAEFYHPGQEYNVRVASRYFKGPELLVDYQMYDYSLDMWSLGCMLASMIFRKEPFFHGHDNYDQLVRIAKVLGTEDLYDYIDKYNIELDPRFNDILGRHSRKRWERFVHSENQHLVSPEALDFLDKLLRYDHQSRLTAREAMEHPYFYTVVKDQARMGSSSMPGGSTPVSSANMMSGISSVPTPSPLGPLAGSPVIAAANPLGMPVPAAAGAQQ
Sequence of EGFR(T790M) (P00533 25-1210 T790M): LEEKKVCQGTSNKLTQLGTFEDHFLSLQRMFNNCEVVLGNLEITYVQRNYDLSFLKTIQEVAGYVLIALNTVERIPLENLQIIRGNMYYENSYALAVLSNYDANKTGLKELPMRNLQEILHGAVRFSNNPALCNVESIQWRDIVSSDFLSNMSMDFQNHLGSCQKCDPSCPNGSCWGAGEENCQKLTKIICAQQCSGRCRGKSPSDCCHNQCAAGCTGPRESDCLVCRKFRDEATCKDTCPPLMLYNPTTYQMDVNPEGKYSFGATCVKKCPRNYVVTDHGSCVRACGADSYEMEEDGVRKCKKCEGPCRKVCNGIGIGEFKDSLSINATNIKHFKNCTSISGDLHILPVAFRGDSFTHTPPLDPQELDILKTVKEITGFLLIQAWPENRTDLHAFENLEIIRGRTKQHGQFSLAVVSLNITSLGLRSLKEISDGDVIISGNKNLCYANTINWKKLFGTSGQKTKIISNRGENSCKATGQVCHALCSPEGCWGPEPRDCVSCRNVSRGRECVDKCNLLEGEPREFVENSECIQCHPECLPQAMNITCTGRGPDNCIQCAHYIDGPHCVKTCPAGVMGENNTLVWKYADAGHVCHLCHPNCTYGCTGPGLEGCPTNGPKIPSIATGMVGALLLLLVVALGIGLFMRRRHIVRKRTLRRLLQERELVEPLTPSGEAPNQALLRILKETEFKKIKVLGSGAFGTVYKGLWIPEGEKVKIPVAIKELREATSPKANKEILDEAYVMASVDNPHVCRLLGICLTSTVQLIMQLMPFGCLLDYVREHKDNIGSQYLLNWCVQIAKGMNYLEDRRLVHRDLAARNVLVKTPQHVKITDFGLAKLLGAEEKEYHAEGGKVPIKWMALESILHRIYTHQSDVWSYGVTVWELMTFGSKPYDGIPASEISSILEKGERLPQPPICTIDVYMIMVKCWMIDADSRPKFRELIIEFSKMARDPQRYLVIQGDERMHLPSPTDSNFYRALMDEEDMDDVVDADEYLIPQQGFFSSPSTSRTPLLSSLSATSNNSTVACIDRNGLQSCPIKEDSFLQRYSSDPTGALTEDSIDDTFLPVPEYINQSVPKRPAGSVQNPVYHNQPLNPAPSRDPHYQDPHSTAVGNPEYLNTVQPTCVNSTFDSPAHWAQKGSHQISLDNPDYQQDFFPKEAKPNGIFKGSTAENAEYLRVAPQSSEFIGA
Sequence of MARK1 (Q9P0L2 whole entry): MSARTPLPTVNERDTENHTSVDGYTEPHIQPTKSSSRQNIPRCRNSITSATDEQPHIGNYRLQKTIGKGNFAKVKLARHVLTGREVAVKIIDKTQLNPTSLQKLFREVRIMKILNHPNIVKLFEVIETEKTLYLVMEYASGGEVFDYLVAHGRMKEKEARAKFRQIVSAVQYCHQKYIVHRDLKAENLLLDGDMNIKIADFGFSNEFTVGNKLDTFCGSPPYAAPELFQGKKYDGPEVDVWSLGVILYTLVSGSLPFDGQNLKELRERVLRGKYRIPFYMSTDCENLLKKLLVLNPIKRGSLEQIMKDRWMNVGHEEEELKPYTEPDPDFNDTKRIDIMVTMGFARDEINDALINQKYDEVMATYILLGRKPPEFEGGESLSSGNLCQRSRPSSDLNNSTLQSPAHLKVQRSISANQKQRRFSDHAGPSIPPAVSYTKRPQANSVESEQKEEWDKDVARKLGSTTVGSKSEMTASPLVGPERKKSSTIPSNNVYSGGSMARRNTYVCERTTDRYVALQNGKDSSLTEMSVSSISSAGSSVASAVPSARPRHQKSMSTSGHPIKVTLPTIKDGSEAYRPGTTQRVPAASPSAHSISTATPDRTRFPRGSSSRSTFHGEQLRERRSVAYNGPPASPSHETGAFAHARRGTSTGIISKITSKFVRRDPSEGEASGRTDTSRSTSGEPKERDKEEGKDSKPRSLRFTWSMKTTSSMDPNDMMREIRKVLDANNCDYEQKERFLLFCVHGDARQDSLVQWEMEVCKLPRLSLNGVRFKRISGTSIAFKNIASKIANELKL
Sequence of DYRK1B (Q9Y463 whole entry): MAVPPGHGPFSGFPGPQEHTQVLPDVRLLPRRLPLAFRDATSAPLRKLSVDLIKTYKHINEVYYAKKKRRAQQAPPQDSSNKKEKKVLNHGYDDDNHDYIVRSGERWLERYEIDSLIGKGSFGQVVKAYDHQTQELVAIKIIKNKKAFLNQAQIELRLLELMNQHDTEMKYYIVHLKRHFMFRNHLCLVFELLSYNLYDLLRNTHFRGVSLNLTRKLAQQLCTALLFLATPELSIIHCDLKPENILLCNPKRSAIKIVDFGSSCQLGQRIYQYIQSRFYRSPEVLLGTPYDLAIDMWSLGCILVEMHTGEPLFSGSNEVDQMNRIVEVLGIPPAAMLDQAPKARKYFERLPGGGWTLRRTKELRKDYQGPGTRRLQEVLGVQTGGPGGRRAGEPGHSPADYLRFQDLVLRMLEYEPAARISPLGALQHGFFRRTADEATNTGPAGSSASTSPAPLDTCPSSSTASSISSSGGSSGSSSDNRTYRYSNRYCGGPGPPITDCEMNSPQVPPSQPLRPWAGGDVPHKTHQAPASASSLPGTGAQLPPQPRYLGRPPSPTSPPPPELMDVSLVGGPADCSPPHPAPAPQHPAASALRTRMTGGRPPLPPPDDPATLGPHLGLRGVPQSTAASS
Sequence of EGFR(L747-E749del, A750P) (P00533 other isoform, or with tags, fused parts or gaps A750P): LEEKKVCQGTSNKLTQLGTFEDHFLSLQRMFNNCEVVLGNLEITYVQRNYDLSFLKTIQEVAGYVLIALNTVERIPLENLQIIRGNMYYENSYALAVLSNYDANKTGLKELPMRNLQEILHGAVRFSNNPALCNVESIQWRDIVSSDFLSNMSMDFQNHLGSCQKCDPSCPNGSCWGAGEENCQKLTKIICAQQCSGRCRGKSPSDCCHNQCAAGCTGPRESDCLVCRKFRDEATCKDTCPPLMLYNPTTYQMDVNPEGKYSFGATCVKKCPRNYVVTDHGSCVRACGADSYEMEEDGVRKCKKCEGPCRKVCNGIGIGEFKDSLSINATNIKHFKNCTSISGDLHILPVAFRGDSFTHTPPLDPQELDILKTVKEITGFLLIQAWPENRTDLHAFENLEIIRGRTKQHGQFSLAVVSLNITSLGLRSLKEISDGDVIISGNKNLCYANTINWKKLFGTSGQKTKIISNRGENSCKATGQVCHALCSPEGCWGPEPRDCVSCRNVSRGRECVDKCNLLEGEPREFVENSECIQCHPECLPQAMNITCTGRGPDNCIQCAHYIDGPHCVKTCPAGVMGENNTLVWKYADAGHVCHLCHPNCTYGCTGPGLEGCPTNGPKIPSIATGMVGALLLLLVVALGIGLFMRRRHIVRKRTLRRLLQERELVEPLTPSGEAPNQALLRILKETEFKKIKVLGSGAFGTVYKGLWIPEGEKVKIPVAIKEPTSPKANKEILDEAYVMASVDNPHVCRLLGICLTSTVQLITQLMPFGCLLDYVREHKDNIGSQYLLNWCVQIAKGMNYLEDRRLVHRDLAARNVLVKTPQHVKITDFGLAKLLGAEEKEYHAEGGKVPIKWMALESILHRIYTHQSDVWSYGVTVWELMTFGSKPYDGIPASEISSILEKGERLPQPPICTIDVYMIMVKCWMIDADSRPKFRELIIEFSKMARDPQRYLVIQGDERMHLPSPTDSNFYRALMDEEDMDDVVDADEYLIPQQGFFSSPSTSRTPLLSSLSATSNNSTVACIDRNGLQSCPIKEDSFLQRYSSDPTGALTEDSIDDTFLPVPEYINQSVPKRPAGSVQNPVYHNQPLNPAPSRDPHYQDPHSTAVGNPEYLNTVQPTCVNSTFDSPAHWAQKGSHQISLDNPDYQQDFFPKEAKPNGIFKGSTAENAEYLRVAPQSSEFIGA
Sequence of PLK2 (Q9NYY3 whole entry): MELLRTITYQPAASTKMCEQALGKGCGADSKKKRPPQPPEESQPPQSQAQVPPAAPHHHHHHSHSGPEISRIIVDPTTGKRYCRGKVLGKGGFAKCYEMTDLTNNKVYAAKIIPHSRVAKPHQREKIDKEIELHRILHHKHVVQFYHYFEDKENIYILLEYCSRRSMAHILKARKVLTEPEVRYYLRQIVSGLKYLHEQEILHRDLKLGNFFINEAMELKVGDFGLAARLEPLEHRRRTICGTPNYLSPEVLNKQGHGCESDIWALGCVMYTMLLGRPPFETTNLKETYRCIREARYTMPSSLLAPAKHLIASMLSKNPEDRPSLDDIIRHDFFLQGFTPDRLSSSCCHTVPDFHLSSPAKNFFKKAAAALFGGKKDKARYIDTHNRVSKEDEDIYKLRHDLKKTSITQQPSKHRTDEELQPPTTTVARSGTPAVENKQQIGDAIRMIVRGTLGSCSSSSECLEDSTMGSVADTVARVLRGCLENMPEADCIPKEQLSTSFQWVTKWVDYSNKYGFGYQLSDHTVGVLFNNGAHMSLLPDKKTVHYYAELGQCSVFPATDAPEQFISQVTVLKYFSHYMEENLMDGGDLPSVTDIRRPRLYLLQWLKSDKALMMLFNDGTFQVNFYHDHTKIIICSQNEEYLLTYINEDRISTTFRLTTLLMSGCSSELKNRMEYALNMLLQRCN

SMILES | remaining binding at 10 µM [1] [%] | remaining binding at 10 µM (CDK7) [%] | remaining binding at 10 µM (CDK9) [%] | remaining binding at 10 µM (CDKL1) [%] | remaining binding at 10 µM (CLK3) [%] | remaining binding at 10 µM (CSNK1G1) [%] | remaining binding at 10 µM (CSNK2A1) [%] | remaining binding at 10 µM (DYRK1B) [%] | remaining binding at 10 µM (EGFR(G719S)) [%] | remaining binding at 10 µM [2] [%] | remaining binding at 10 µM (EGFR(L747-T751del, Sins)) [%] | remaining binding at 10 µM (EGFR(T790M)) [%] | remaining binding at 10 µM (FGFR3(G697C)) [%] | remaining binding at 10 µM (HCK) [%] | remaining binding at 10 µM (HIPK1) [%] | remaining binding at 10 µM (IKK-alpha) [%] | remaining binding at 10 µM (LKB1) [%] | remaining binding at 10 µM (MARK1) [%] | remaining binding at 10 µM (NEK5) [%] | remaining binding at 10 µM (PAK7) [%] | also measured
COc1cc(N2CCC(N3CCN(C)CC3)CC2)ccc1Nc1ncc2c(n1)N(C)c1sc(C)nc1C(=O)N2 [Compound 3, 6-((2-methoxy-4-(4-(4-methylpiperazin-1-yl)piperidin-1-yl)phenyl)amino)-2,4-dimethyl-4,9-dihydro-10H-pyrimido[5,4-b]thiazolo[5,4-e][1,4]diazepin-10-one] | 47 | 94 | 74 | 72 | 97 | 86 | 93 | 69 | 48 | 95 | 52 | 100 | 78 | 69 | 83 | 100 | 44 | 87 | 97 | 97 | remaining binding at 10 µM (PDPK1): 76%; remaining binding at 10 µM (PIK3CA): 100%; remaining binding at 10 µM (PIK3CA(E545A)): 84%; remaining binding at 10 µM (PLK2): 100%; remaining binding at 10 µM (SBK1): 100%; remaining binding at 10 µM (SgK110): 86%; remaining binding at 10 µM (SLK): 70%; remaining binding at 10 µM (SRC): 63%; remaining binding at 10 µM (STK16): 81%; remaining binding at 10 µM (STK36): 61%; remaining binding at 10 µM (ULK1): 100%; remaining binding at 10 µM (ULK3): 95%; remaining binding at 10 µM (VRK2): 91%
COc1cc(N2CCC(N3CCN(C)CC3)CC2)ccc1Nc1ncc2c(n1)N(C)c1sc(C)nc1C(=O)N2C [Compound 5, 6-((2-methoxy-4-(4-(4-methylpiperazin-1-yl)piperidin-1-yl)phenyl)amino)-2,4,9-trimethyl-4,9-dihydro-10H-pyrimido[5,4-b]thiazolo[5,4-e][1,4]diazepin-10-one] | 100 | 100 | 98 | 80 | 97 | 97 | 95 | 87 | 100 | 97 | 100 | 93 | 100 | 95 | 94 | 100 | 100 | 89 | 100 | 88 | remaining binding at 10 µM (PDPK1): 96%; remaining binding at 10 µM (PIK3CA): 100%; remaining binding at 10 µM (PIK3CA(E545A)): 100%; remaining binding at 10 µM (PLK2): 62%; remaining binding at 10 µM (SBK1): 98%; remaining binding at 10 µM (SgK110): 92%; remaining binding at 10 µM (SLK): 100%; remaining binding at 10 µM (SRC): 100%; remaining binding at 10 µM (STK16): 100%; remaining binding at 10 µM (STK36): 100%; remaining binding at 10 µM (ULK1): 98%; remaining binding at 10 µM (ULK3): 97%; remaining binding at 10 µM (VRK2): 97%
